Measured values as given in paper PMC6962389, “Somatostatin receptor mediated targeting of acute myeloid leukemia by photodynamic metal complexes for light induced apoptosis” (Scientific Reports, 2020).
pIC50: −log10 of the molar value. Read-outs that look alike come from different tables or passages of the source.

Columns and labels:
Format in all cases: cell-based, human
[1] = system: primary AML patient samples (clonogenic progenitor cells); test: CFC assay on primary AML patient samples; design: average reduction in CFC numbers, with exposure to light / % reduction of CFC: concentration or dose not given beside the values; settings: for CFC/10^4 cells: 4 h incubation, day 14
Text: Mononuclear cells were isolated from bone marrow (BM) or peripheral blood (PB) from patients with primary diagnosed AML, analyzed for their SSTR2 expression (n = 13) and cultured with the RU-SST bioconjugate to test the toxicity of the compound (n = 6). All patient samples were investigated by cytomorphological, cytogenetic and molecular analyses after written informed consent as described. Diagnosis was made according to the French-American-British criteria and the World Health Organization classification (Table 1)[11],[12]. The study was approved by the ethic committee of the University of Ulm. in accordance with the ethical principles of the declaration of Helsinki (http://www.wma.net/en/30publications/10policies/b3/index.html). Leukemic cells were thawed and kept in culture with culture conditions as mentioned previously.
(§1) To evaluate the toxicity of the bioconjugate on clonogenic progenitor cells, AML cell lines as well primary human cells were incubated with the compound for 4 hours. Subsequently, cells were washed and cell counts were determined via trypan blue exclusion. Colony forming cell unit (CFC) assays were performed as described previously. In all cases cell numbers placed in methylcellulose were calculated according to the initial cell number at the start of the experiment, not taking into account any cell loss during the incubation time. 1000 cells (OCI-AML3 and HL60) and 500 cells (THP1) were plated per dish (methocult H4330). For primary patient samples, 10,000 cells were plated per dish in methylcellulose H4330 (Stem Cell Technologies, Vancouver, BC, Canada) and supplemented with cytokines. For the CD34^+ enriched CB cells, 300 cells were plated per dish in methocult H4434 (Stem Cell Technologies, Vancouver, BC, Canada). Each experiment was performed in duplicates and values mentioned are Mean ± SEM.

CD34+ enriched CB cells = test: CFC assay on CD34+ enriched cord blood cells; settings: unconjugated RU-Alkyne; ±4.88% SEM; n = 6 CB samples
Procedure: Cells from cord blood (CB) were enriched for CD34^+ using the human CD34 Micro Bead Kit ultrapure (Miltenyi Biotec, Auburn, CA, USA) according to the manufacturer instructions.
To evaluate the toxicity of the bioconjugate on clonogenic progenitor cells, AML cell lines as well primary human cells were incubated with the compound for 4 hours. Subsequently, cells were washed and cell counts were determined via trypan blue exclusion. Colony forming cell unit (CFC) assays were performed as described previously. In all cases cell numbers placed in methylcellulose were calculated according to the initial cell number at the start of the experiment, not taking into account any cell loss during the incubation time. 1000 cells (OCI-AML3 and HL60) and 500 cells (THP1) were plated per dish (methocult H4330). […]
To evaluate, whether the effect of the compound was selective for AML stem and progenitor cells, we analysed the toxicity of the compound for CD34^+ enriched CB cells (n = 6). […]
Figure 3 Effect of RU-complexes on clonogenicity of normal CD34^+ cells: cells from […] CD34^+ enriched cord blood (CB) samples (n = 6) were tested for the effect of both RUSST and RU-Alkyne compounds. […] Percent reduction was determined based on the colony numbers generated from CB cells treated with RU-SST and exposed to light compared to dark RU-SST. […] Significance calculated by Mann-Whitney test ** < 0.01.

HL60 cells = test: Determination of the IC50 in HL60 cells (trypan blue exclusion, light/dark); settings: 10–100 µM
Procedure: Figure 1 Uptake and IC50 studies of RU complex: confocal images of OCI-AML3 cells incubated with RU-SST (50 μm) (A) and RU-Alkyne control (RU-Alk) (100μm) (B) for 4 hrs. The laser intensity was measured for alexaflour (430 nm). Uptake characteristics with values of the integrated intensity (a.u.) per cell (C). Bar graphs indicate the average integrated intensity per cell in both experimental arms. Cells analysed for RU-SST (n = 45) and RU-Alk (n = 44). Data are represented as mean ± SEM. (D) IC50 was calculated in HL60 AML cell lines. Percent cell survival was measured by trypan blue exclusion after 4 h incubation with RU-Alk (control), RU-SST (irradiated) compared to RU-SST in the absence of light (dark RU). Experiments performed for dark RU-SST (n = 6); RU-Alk (n = 3), for RU-SST (n = 3). Data are represented as mean ± SEM. […]
phenylalanine as an internal standard (Int. std.) was added to remove large proteins and the solution was centrifuged at […] for 30 min at 0 °C. […] The amount of RU-SST in each sample was determined as a ratio of the integration of the mass chromatogram of RU-SST to the int. std. […]
For this purpose, we chose a high SSTR2 expressing cell line, HL60 2 . […] The cell viability was quantified by trypan blue exclusion. IC50 values were calculated using R-statistical package. […]

OCI-AML3 cells = test: CFC assay (clonogenic growth in methylcellulose), OCI-AML3; settings: unconjugated control, 4 h incubation, day 14
Procedure: as §1
We could detect a significant decrease in colony growth in the OCI AML3 cell line with a 92% reduction of colony growth when the cells were incubated with RU-SST and exposed to light compared to the cells treated with RU-SST and not exposed to light (Fig. 2A).
Significance was calculated using the Mann-Whitney test (** < 0.01). […]

C#Cc1ccnc(-c2ccccn2)c1.[Cl-].[Cl-].[Ru+2].c1ccc(-c2ccccn2)nc1.c1ccc(-c2ccccn2)nc1 [RU-Alkyne]
% reduction of CFC ([1]; AML#1, 6 min RU-Alk (light) vs dark RU-SST): 22%
CFC/10^4 cells ([1]; AML#1, 6 min RU-Alk (light)): 78 CFC/10^4 cells
% reduction of CFC ([1]; AML#1, Dark RU-Alk vs dark RU-SST): 0%
CFC/10^4 cells ([1]; AML#1, Dark RU-Alk): 153 CFC/10^4 cells
% reduction of CFC ([1]; AML#2, 6 min RU-Alk (light) vs dark RU-SST): 17.7%
CFC/10^4 cells ([1]; AML#2, 6 min RU-Alk (light)): 208 CFC/10^4 cells
% reduction of CFC ([1]; AML#2, Dark RU-Alk vs dark RU-SST): 2.0%
CFC/10^4 cells ([1]; AML#2, Dark RU-Alk): 247 CFC/10^4 cells
% reduction of CFC ([1]; AML#3, 6 min RU-Alk (light) vs dark RU-SST): 0%
CFC/10^4 cells ([1]; AML#3, 6 min RU-Alk (light)): 211 CFC/10^4 cells
% reduction of CFC ([1]; AML#3, Dark RU-Alk vs dark RU-SST): 0%
CFC/10^4 cells ([1]; AML#3, Dark RU-Alk): 187 CFC/10^4 cells
% reduction of CFC ([1]; AML#4, 6 min RU-Alk (light) vs dark RU-SST): 48.9%
CFC/10^4 cells ([1]; AML#4, 6 min RU-Alk (light)): 24 CFC/10^4 cells
% reduction of CFC ([1]; AML#4, Dark RU-Alk vs dark RU-SST): 38.2%
CFC/10^4 cells ([1]; AML#4, Dark RU-Alk): 29 CFC/10^4 cells
% reduction of CFC ([1]; AML#5, 6 min RU-Alk (light) vs dark RU-SST): 41.5%
CFC/10^4 cells ([1]; AML#5, 6 min RU-Alk (light)): 69 CFC/10^4 cells
% reduction of CFC ([1]; AML#5, Dark RU-Alk vs dark RU-SST): 38.9%
CFC/10^4 cells ([1]; AML#5, Dark RU-Alk): 72 CFC/10^4 cells
% reduction of CFC ([1]; AML#6, 6 min RU-Alk (light) vs dark RU-SST): 58.7%
CFC/10^4 cells ([1]; AML#6, 6 min RU-Alk (light)): 29 CFC/10^4 cells
% reduction of CFC ([1]; AML#6, Dark RU-Alk vs dark RU-SST): 48.5%
CFC/10^4 cells ([1]; AML#6, Dark RU-Alk): 36 CFC/10^4 cells
average reduction in CFC numbers, with exposure to light ([1]; RU-Alkyne with exposure to light, 6 primary AML samples, mean (SEM), not significant): 31.4%
reduction in colony numbers compared to dark RU-SST (CD34+ enriched CB cells): 18.59%
pIC50 (HL60 cells; 4 h incubation in the dark, washed, 470 nm LED 6 min (6.9 ± 0.9 J cm-2), probit regression, n = 3, mean ± SEM, read-out: IC50 after light irradiation): < 4.00
pIC50 (HL60 cells; 4 h incubation, not exposed to light, IC50 not reached with up to 100 µM, dark RU-SST n = 6, read-out: IC50 in the dark): < 4.00
colony growth, exposed or not exposed to light (OCI-AML3 cells): no comparable reduction in colony growth
